In patent publication US20020115724A1, “Methods and agents for inhibiting protein aging” (priority 1985, published 2002):
Structures can show the parent of a compound that is named as a salt. Where two headings read alike, the source gives them in different places.

How the values were obtained:
bovine serum albumin = experiment: Formation of fluorescent advanced glycosylation end products in albumin incubated with glucose; type: biochemical; conditions: 200 mM agent, 6 mg/mL BSA, 200 mM glucose, 37° C., two-week incubation, vs control
Method: To measure the ability of certain of the agents of the present invention to inhibit the production of advanced glycosylated end products in vitro, albumin and glucose were incubated together for two weeks in the presence of several test agents. Samples were taken at regular intervals for analysis. Advanced glycosylation end products were measured as appearance of fluorescent compounds, and early glycosylation products were measured by incorporation of radiolabeled glucose into albumin. Reaction conditions were as follows. […]
After the incubation periods, samples were treated as follows. After dialysis to remove all unbound glucose, the amount of protein present was measured with a standard dye-binding assay. The amount of glucose which became bound to the albumin, a measure of early glycosylation products, was determined by precipitating albumin with trichloroacetic acid and measuring the radioactivity of the bound glucose using scintillation counting.
The results of this experiment are expressed graphically in FIG. 1. For each sample, incorporation of radiolabeled glucose is indicated by the solid portion of the bar, and fluorescence is indicated in the open portion of the bar. All values are expressed as per milligram of albumin. […]

[1] = system: diabetic New Zealand white rabbits; experiment: Red blood cell deformability in long-term diabetic rabbits; type: in vivo, rabbit; conditions: for Red Blood Cell Deformability Index: diabetic rabbits, 100 mg/kg/day oral gavage
From the text: New Zealand white rabbits, with induced, long-term diabetes (12.7±3.2 months) are used to study the effects of a test compound on red blood cell (RBC) deformability. If glucose-mediated crosslinking of red blood cell components results in less deformable, more rigid membrane, then therapy should prevent this change in new red cells. Red blood cells already in existence at the initiation of therapy would be unaffected; because RBCs are replaced frequently newly formed red blood cells would be exposed to the therapy. […] The test compound is administered at a rate of 100 mg/kg/day by oral gavage.
The deformability index (DI) (filtration rate of buffer/filtrate rate of suspended RBCs; hematocrit=4.0%) is used as a measure of RBC deformability. Buffer and suspended RBCs are filtered through a 3 μ micropore membrane (Nucleopore Corp., Pleasanton, Calif.) with a pressure of […] at 37° C. A reference range for RBC deformability (2.67 to 4.84, mean 4.02±0.69) and % hemoglobin glycosylation (1.7 to 3.96, mean 2.60±0.70) is obtained from a group of normal New Zealand white rabbits (n=14), matched for age, sex and weight.
The results are given in Table III, below for diabetic New Zealand white rabbits dosed with 100 mg/kg/day aminoguanidine.

rats = conditions: hydrochloride, cited from earlier work; for toxicity in animals: in words
histamine = conditions: in vivo; cited from earlier work
kidney = conditions: in vivo; cited from earlier work

For `N=C(N)NN` [aminoguanidine hydrochloride], the “formation of fluorescent compounds (advanced glycosylation end products)” value (bovine serum albumin) was “dramatically reduced by as much as eightfold”, the “Red Blood Cell Deformability Index” value ([1]; 0 weeks of dosing (baseline)) was 18.32 ± 6.03 and the “Red Blood Cell Deformability Index” value ([1]; 4 weeks of dosing) was 7.17 ± 3.12. For the same molecule, the “Red Blood Cell Deformability Index” value ([1]; 8 weeks of dosing) was 6.83 ± 2.97, the “Red Blood Cell Deformability Index” value ([1]; 12 weeks of dosing) was 4.64 ± 1.58 and the “Red Blood Cell Deformability Index” value ([1]; 16 weeks of dosing) was 4.44 ± 1.33. For the same molecule, the “Red Blood Cell Deformability Index” value ([1]; 20 weeks of dosing) was 4.14 ± 1.06, the “effect on diabetes-induced increased deformability index” value ([1]; long-term diabetic rabbits, delayed treatment) was “to normal after 12 weeks” and the “RBC deformability index” value ([1]; separate experiment, daily administration from the time of induction of diabetes) was “never became abnormal”. The toxicity in animals (rats) was “low toxicity in animals”, the toxicity in animals (rats; listed as hydrochloride derivative) was “very low toxicity” and the LD50 (rats; subcutaneously, rats, listed as hydrochloride derivative) was 2984 mg/kg. For the same molecule, the levels of histamine (histamine) was “increase levels of histamine” and the “immunoglobulin trapping in the kidney” value (kidney) was “reduction of immunoglobulin trapping in the kidney”.
